Patent US7186727B2, “Pyridyl-substituted spiro-hydantoin compounds and use thereof” (Bristol-Myers Squibb Company, priority 2004, dated 2007)

Assay: Microsomal liver assay (rate of oxidative metabolism)
Assay type: in vitro ADME
Details: human liver microsomes; 3 μM test compound, 1 mg/mL microsomal proteins, 37° C.
Experimental: Mouse and rat liver microsomes were purchased from XenoTech LLC (Kansas City, Kans.), and human liver microsomes were obtained from BD Gentest (Woburn, Mass.).
The oxidative metabolism in liver microsomes of various species was studied under the following condition: 3 μM test compound (organic solvent content <0.1%), 1 mg/mL microsomal proteins, 1 mM β-nicotinamide adenine dinucleotide phosphase (β-NADPH), 100 mM phosphate buffer (pH 7.4), and 6.7 MM magnesium chloride. The reaction (n=3) was initiated by the addition of NADPH followed by incubation at 37° C. for 20 min. Aliquots of samples (0.1 mL) were taken at 0, 5, and 20 min, and the reaction was quenched by the addition of three volumes of acetonitrile. Samples were stored at −20° C. until analysis.
The rate of oxidation in liver microsomes was determined from the following equation: rate (nmol/min/mg protein)=k*C0/Cprotein, where k (1/min) is the turnover rate constant estimated from non-linear regression of the percent compound remaining (y)-time (t) curve using the equation y=y0*exp(−k*t); C0 is initial drug concentration (μM), and Cprotein is microsomal protein concentration (mg/mL).
Rates of metabolism are “binned” (classified) as follows: […]

With `CN1C(=O)N(c2cc(Cl)cc(Cl)c2)C(=O)[C@]12CN(c1ccccn1)C[C@H]2c1ccc(C#N)cc1` (relative stereo) [4-[(5S*,9R *)-3-(3,5-dichlorophenyl)-1-methyl-2,4-dioxo-7-pyridin-2-yl-1,3,7-triazaspiro[4.4]non-9-yl]-benzonitrile] as the compound, how does the rate of metabolism read?
The rate of metabolism was 0.2 nmol/min/mg.
